Reference: patent US7897789B2, “Vitamin D receptor modulators” (Eli Lilly and Company, priority 2003, dated 2011)
pEC50, pIC50: −log10 of the molar value. Where “and” joins values, the source holds several entries; their conditions need not be identical. Identical values can stand only once. Like-named read-outs stand apart in the source and are kept apart here.

Columns and labels:
RXR-VDR heterodimer = target: T1, RXR-VDR heterodimer (Homo sapiens, UniProt P11473); assay: RXR-VDR heterodimerization assay (SaOS-2 cells); assay type: cell-based; settings: Gal4-RXR / VP16-VDR-LBD luciferase reporter, Table 1
T1 construct: Add the Gal4-RXR-DEF and VP16-VDR-LBD; expressed in transfected cells; host or cells: SaOS-2 cells
T1 sequence (P11473 127-423 limits assumed): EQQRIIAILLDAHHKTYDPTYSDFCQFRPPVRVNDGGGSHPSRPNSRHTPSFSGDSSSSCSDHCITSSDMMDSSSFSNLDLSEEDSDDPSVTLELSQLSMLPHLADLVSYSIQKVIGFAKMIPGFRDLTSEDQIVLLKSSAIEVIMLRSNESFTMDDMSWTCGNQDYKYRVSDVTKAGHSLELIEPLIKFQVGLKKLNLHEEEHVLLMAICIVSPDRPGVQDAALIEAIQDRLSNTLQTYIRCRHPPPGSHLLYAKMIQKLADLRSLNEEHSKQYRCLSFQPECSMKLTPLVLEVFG
T1 sequence (P19793 201-462 partner limits assumed): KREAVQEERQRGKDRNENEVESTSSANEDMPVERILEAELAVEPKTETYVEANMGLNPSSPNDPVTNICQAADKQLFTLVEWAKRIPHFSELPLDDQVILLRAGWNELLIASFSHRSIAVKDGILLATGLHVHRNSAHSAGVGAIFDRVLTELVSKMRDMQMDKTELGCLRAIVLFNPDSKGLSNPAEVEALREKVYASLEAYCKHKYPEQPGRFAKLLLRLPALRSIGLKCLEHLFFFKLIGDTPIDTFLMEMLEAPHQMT
Experimental: 1. The RXR-VDR HeterodimerAssay:
This assay provides the VDR activity of a test compound.
(1) Materials and Method for RXR-VDR Heterodimerization Assay:
Luciferase Assay Reagent: • Use Steady-Glo Luciferase Reagent from Promega (Cat #E2550) Consists of: a. E2533 Assay Substrate, lyopholized product and b. E2543 Assay Buffer. • Thaw at room temperature • Store Cell Harvesting Aspirate media from culture flask, rinse cells with HBSS and aspirate. Add trypsin and incubate. When cells appear detached, resuspend cells in growth media. Transfer into a new flask with fresh growth media for passaging the cells. Plate well plates and two extra plates A. Cell Count Mix the cell suspension using pipette Use Hematocytometer to count the cells Load cell suspension onto the hemocytometer chamber Count cells. […] In sterile flask add cell suspension to plating media. Mix. Add cells/well. Place the cells in the incubator. Cells should be about 75% confluent prior to transfection. DAY 2: Transfection Step 1: DNA and Media Add plain DMEM media to tubes for mixing the DNA Add the Reporter gene pFR-LUC Add the Gal4-RXR-DEF and VP16-VDR-LBD Step 2: FuGENE and Media Prepare plain DMEM media in a ubes for mixing FuGENE Add FuGENE 6 Transfection Reagent Incubate Step 3: FuGENE, DNA and Media Complex Add FuGENE Media complex from step 2 to DNA Media complex from step 1 Incubate Step 4: FuGENE, DNA and Media Complex to-well plate Add FuGENE-DNA-Media complex from step 3 to each plate Incubate. […] Day 4: Luciferase Assay Read the plates after drug treatment Remove part of media from all the wells and leave remainder Add Steady-Glo Luciferase Reagent mixture/wells Incubate Count each well using a Luminescence counter, Top Count NXT by Packard
Set a delay between plates to reduce the background.

VDR = target: T2, VDR (Homo sapiens, UniProt P11473); assay: Caco-2 cell co-transfection assay (VDR CTF); assay type: cell-based; settings: Caco-2 cells, pGal4-VDR-LBD luciferase co-transfection; Table 1
T2 construct: the receptor expression vector pGal4-VDR-LBD (10 ng); expressed in transfected cells; host or cells: Caco-2 cells
T2 sequence (P11473 127-423 limits assumed): T1 sequence (P11473 127-423 limits assumed)
Experimental: 2. The Caco-2 Cell Co-Transfection Assay:
The Caco-2 cell assay is an indicator for the undesirable condition of hypercalcemia. This co-transfection assay is a surrogate assay for in vivo calcemic activity of VDR ligands. […] Preferred assay results are greater than 1000 nM.
(2) Materials and Method for The Caco-2 Cell Assay:
Caco-2 cells, grown in phenol red free, DMEM (Invitrogen, Carlsbad, Calif.) containing 10% charcoal-stripped FCS (Hyclone, Logan, Utah), were transfected with Fugene 6 reagent (Roche Diagnostics, Indianapolis, Ind.). Cells (5000/well) were plated 18 h before transfection in a 96 well plate. The Cells were transfected with Gal4-responsive reporter pFRLuc (150 ng, Stratagene, La Jolla Calif.) and the receptor expression vector pGal4-VDR-LBD (10 ng), along with Fugene 6 reagent (0.2 μl/well). The DNA-Fugene complex was formed by incubating the mixture for 30 min at room temperature. The cells were transfected in triplicate for 5 h, and treated with various concentrations of VDR ligands (form 0.01 nM to 10,000 nM concentration range) 18 h post-transfection. The luciferase activity was quantified using Steady-Glo reagent kit (Promega, Madison, Wis.) as per manufacturer's specifications.

rat osteocalcin promoter = assay: OCN (osteocalcin) promoter assay; assay type: cell-based; settings: RG-15 (ROS 17/2.8) cells, 48 hr treatment, Table 1
Experimental: 3. The OCN (Osteocalcin) Promoter Assay
The OCN Promoter Assay is an indicator and marker for osteoporosis. […] Preferred assay results are less than 50 nM.
(3) Materials and Method for the OCN Promoter Assay:
The activation of osteocalcin by VDR ligands was evaluated in a rat osteoblast-like cell line RG-15 (ROS 17/2.8) stably expressing rat osteocalcin promoter fused with luciferase reporter gene. […] Confluent RG-15 cells maintained in DMEM/F-12 medium (3:1) containing 5% FBS, 300 μg/ml G418 and at 37° C. under 5% CO2/95% air atmosphere were trypsinized (0.25% trypsin) and plated into white opaque 96-well cell culture plates (25000 cells/well). After 24 hr, cells (in DMEM/F-12 medium+2% FBS) were treated with various concentrations of compounds, dissolved in DMSO. The final DMSO concentration remained at 0.01% (v/v). After 48 hr treatment, the medium was removed, cells were lysed with 50 μl of lysis buffer (From Luciferase reporter assay system, Roche Diagnostics, Indianapolis, Ind.) and assayed for luciferase activity using the Luciferase Reporter Gene Assay kit from Boehringer Mannheim as per manufacturer's specifications.

KERtr cells = assay: Keratinocyte proliferation assay; assay type: cell-based; settings: Homo sapiens
Experimental: 5. The Keratinocyte Proliferation Assay
This Assay is indicative for the treatment of psoriasis.
(5) The Keratinocyte Proliferation Assay:
KERtr cells (Human skin keratinocyte transformed with a retrovirus vector, obtained from ATCC) were plated in 96-well flat-bottomed plates (3000 cells/well) in 100 μl keratinocyte serum free medium supplemented with bovine pituitary extract in the absence of EGF (Life Technologies, Rockville, Md.) and incubated at 37° C. for two days. The cells were treated with various concentrations of VDR ligands (ten-fold serial dilution from 10,000 nM to 0.1 nM in triplicate), dissolved in 100 μl keratinocyte serum free medium supplemented with bovine pituitary extract in the absence of EGF and incubated at 37° C. for 72 hr. […] Potency values (IC50) values were determined as the concentration (nM) of compound that elicited a half-maximal response.

DBF mice = assay: Mouse hypercalcemia assay; settings: oral gavage for 6 days, serum ionized calcium 6 hours after last dosing; Table 1
Excerpt: The Mouse Hypercalcemia Assay
The Mouse Hypercalcemia Assay is a six day hypercalcemia test for toxicity and selectivity.
(4) Materials and Method for the Mouse Hypercalcemia Assay:
Weanling, virus-antibody-free, five to six weeks old female DBF mice (Harlan, Indianapolis, Ind.) are used for all the studies. Animals are allowed to acclimate to local vivarium conditions for 2 days. […] The animals then are divided into groups with 4-5 mice per group. Different doses of test compounds prepared in 10% Ethanol and 90% sesame oil are administered to mice orally via gavage for 6 days. 1α-25(OH)2D3 0.5 μg/kg/d was also given to one group of mice as the positive control. […] Raw data of group differences is assessed by analysis of variance (ANOVA) using Fisher's protected least significant difference (PLSD) where the significance level was P<0.05.

IL-10 = assay: Human IL-10 induction assay in PBMCs; assay type: cell-based; settings: PBMC
Excerpt: 6. The IL-10 Induction Assay
This is an in vitro efficacy assay for psoriasis, abscess and adhesion. Psoriasis involves both keratinocytes and immune cells. IL-10 is a unique cytokine because it is anti-inflammatory and immunosuppressive. This assay tells us whether a VDRM is able to function as an agonist in PBMCs ([…]) or not.
(6) Materials and Method for Human IL-10 Induction Assay:
Isolation of Peripheral Blood Mononuclear Cells (PBMCs):
Stimulation of PBMC: • L. Prepare TPA in DMSO. • M. Dissolve PHA in water. • N. Plate TPA/PHA treated PBMCs in well plates. • O. Incubate.
Sample Collection and Assay: • S. Remove all the cells by centrifugation and assay the supernatant for IL-10 by immunoassay. • T. Perform IL-10 assay using anti-human IL-10 antibody coated beads, as described by the manufacturer (Linco Research Inc., St. Charles, Mo.). (8) CaT1 Assay

[1] = 72 h, BrdU incorporation, Table 2, read-out: Kera. Prolif. IC50
[2] = TPA/PHA treated human PBMCs, Table 2

| pIC50 (IL-10; human PBMCs, comparison compounds, Table 4) | Structure (SMILES) | pEC50 (RXR-VDR heterodimer) | EC50 (VDR) [nM] | pEC50 (rat osteocalcin promoter) | pEC50 (rat osteocalcin promoter; Rattus norvegicus, 48 h) | pIC50 (KERtr cells; [1]) | Mouse Hypercal (DBF mice) [µg/kg/day] | pIC50 (IL-10; [2]) | pIC50 (KERtr cells; comparison compounds, Table 4, read-out: Kera. Prolif. IC50) |
| --- | --- | --- | --- | --- | --- | --- | --- | --- | --- |
|  | CCC(CC)(c1ccc(OCC(=O)C(C)(C)C)c(C)c1)c1cc2cc(C(=O)O)ccc2s1 [Ex 17, 2-{1-[4-(3,3-dimethyl-2-oxo-butoxy)-3-methyl-phenyl]-1-ethyl-propyl}-benzo[b]thiophene-5-carboxylic acid] | 6.57 and 7.29 | 631 | 8.52 | 8.40 | 6.39 | >300 |  |  |
|  | CCC(CC)(c1ccc(OCC(O)C(C)(C)C)c(C)c1)c1cc2cc(C(=O)O)ccc2s1 (stereo not shown) [Ex 18, 2-{1-ethyl-1-[4-(2-hydroxy-3,3-dimethyl-butoxy)-3-methyl-phenyl]-propyl}-benzo[b]thiophene-5-carboxylic acid] |  | 748 | 8.89 | 8.62 | 8.74 |  | 7.05 |  |
|  | CCC(CC)(c1ccc(OCC(O)C(C)(C)C)c(C)c1)c1cc2cc(C(=O)NCC(=O)O)ccc2s1 (stereo not shown) [Ex 20, [(2-{1-Ethyl-1-[4-(2-hydroxy-3,3-dimethyl-butoxy)-3-methyl-phenyl]-propyl}-benzo[b]thiophene-5-carbonyl)-amino]-acetic acid] | 7.62 | 314 |  | 8.30 | 7.01 |  | 6.41 |  |
|  | CCC(CC)(c1ccc(OCC(=O)C(C)(C)C)c(C)c1)c1cc2cc(C(=O)N(C)C)ccc2s1 [Ex 21, 2-{1-[4-(3,3-Dimethyl-2-oxo-butoxy)-3-methyl-phenyl]-1-ethyl-propyl}-benzo[b]thiophene-5-carboxylic acid dimethylamide] | 6.87 and 7.62 | 708 | 7.32 | 7.54 | 6.79 | >1000 |  |  |
|  | CCC(CC)(c1ccc(OCC(=O)C(C)(C)C)c(C)c1)c1ccc2cc(C(=O)O)sc2c1 [Ex. 1, 6-{1-[4-(3,3-dimethyl-2-oxo-butoxy)-3-methyl-phenyl]-1-ethyl-propyl}-benzo[b]thiophene-2-carboxylic acid] |  | 432 | 9.00 | 8.70 |  | <300 | 6.96 |  |
|  | CCC(CC)(c1ccc(OCC(O)C(C)(C)C)c(C)c1)c1ccc2cc(C(=O)O)sc2c1 (stereo not shown) [Ex. 2, 6-{1-ethyl-1-[4-(2-hydroxy-3,3-dimethyl-butoxy)-3-methyl-phenyl]-propyl}-benzo[b]thiophene-2-carboxylic acid] | 7.52 | 411 |  | 9.00 | 9.00 |  | 7.62 |  |
|  | CCC(CC)(c1ccc(OCC(=O)C(C)(C)C)c(C)c1)c1ccc2cc(C(=O)N(C)C)sc2c1 [Ex. 3, 6-{1-[4-(3,3-Dimethyl-2-oxo-butoxy)-3-methyl-phenyl]-1-ethyl-propyl}-benzo[b]thiophene-2-carboxylic acid dimethylamide] | 6.35 and 7.17 | 869 |  |  | < 6.00 |  | 6.45 |  |
|  | CCC(CC)(c1ccc(OCC(=O)C(C)(C)C)c(C)c1)c1ccc2cc(C(=O)NCC(=O)O)sc2c1 [Ex. 5, [(6-{1-[4-(3,3-dimethyl-2-oxo-butoxy)-3-methyl-phenyl]-1-ethyl-propyl}-benzo[b]thiophene-2-carbonyl)-amino]-acetic acid] |  | 342 |  | 9.00 | 8.40 | >300 | 8.22 |  |
|  | CCC(CC)(c1ccc(OCC(O)C(C)(C)C)c(C)c1)c1ccc2cc(C(=O)NCC(=O)O)sc2c1 (stereo not shown) [Ex. 6, [(6-{1-ethyl-1-[4-(2-hydroxy-3,3-dimethyl-butoxy)-3-methyl-phenyl]-propyl}-benzo[b]thiophene-2-carbonyl)-amino]-acetic acid] |  | 331 |  |  | 8.40 |  | 8.40 |  |
|  | CCC(CC)(c1ccc(OCC(O)C(C)(C)C)c(C)c1)c1cc2ccc(C(=O)O)cc2s1 (stereo not shown) [Ex. 8, 2-{1-Ethyl-1-[4-(2-hydroxy-3,3-dimethyl-butoxy)-3-methyl-phenyl]-propyl}-benzo[b]thiophene-6-carboxylic acid] |  | 409 |  |  | 9.00 |  | 7.82 |  |
| 9.30 | C=C1/C(=C\C=C2/CCC[C@]3(C)[C@@H]([C@H](C)/C=C/[C@@H](O)C4CC4)CC[C@@H]23)C[C@@H](O)C[C@@H]1O [FF, calcipotriol, reference compound] |  |  |  |  |  |  |  | 6.99 |
